Consider one compound from patent US9400274B2, “Cancer phospholipidome” (Katholieke Universiteit Leuven, priority 2010, dated 2016).

Assay [1] deals with human renal cell carcinoma cell line RCC4. The experiment in a line: Phospholipid profiling (tandem MS) of soraphen-treated RCC4 cells. Format: cell-based. The note with it: 100 nm soraphen vs vehicle, 72 h, PC, PE, PI, PS classes. The method, then:
Renal cancer cell lines RCC4 VHL (Von Hippel Lindau) positive and negative were cultured in advanced DMEM supplemented with 10% fetal bovine serum, 1% PSG and 0.5 mg/ml G418. Cells were grown at 37° C. in a humidified 5% CO2 incubator. The day after seeding, cells were treated with 100 nm soraphen or vehicle (control) for 72 h.
To assess the impact of fatty acyl chain elongation and of chemical inhibitors of this process, the human renal cell carcinoma cell line RCC4 was treated with soraphen.

Assay [2] concerns Human breast adenocarcinoma cells MDA-MB-231. Kind of assay: Phospholipid profiling (tandem MS) of soraphen-treated MDA-MB-231 cells. Format: cell-based. The following applies: 100 nm soraphen vs vehicle, 72 h, four phospholipid classes. The protocol:
Human breast adenocarcinoma cells MDA-MB-231 (obtained from the American Type Culture Collection) were cultured in DMEM-F12 supplemented with 10% fetal bovine serum and were grown at 37° C. in a humidified 5% CO2 incubator. The day after seeding, cells were treated with 100 nm soraphen or vehicle (control) for 72 h.
Lipids were extracted from both soraphen and vehicle treated cells and were analyzed by tandem mass spectrometry.

The structures appear in SMILES notation. “Also recorded” adds a separate entry of the source.

As for `CO[C@H]1CCCC[C@@H](c2ccccc2)OC(=O)[C@@H](C)[C@@]2(O)O[C@H]([C@@H](C)[C@H](O)[C@H]2OC)[C@@H](C)/C=C/[C@H]1OC` [soraphen], the “changes in phospholipid acyl chain composition (soraphen/control ratio)” value in assay [1] was “a marked shift from longer to shorter lipid species; also recorded: a marked inhibition of acyl chain elongation”; in assay [2], “a marked shift from longer to shorter lipid species; also recorded: a clear decrease in the longer lipid species”.
